SMILES strings stand for the structures.

What all share (type): physicochemical
The nature of data set [1]: pH of a saturated solution of baclofen. An excerpt: (§1) Baclofen (below) is a BCS class III molecule.
A short description of data set [2]: pKa of baclofen.
Description: as §1

Data set [3] in a line: Solubilities of baclofen.
Description: as §1

A short description of data set [4]: Log P of baclofen.
Description: as §1
At usual therapeutic doses, baclofen is known to have good oral bioavailability. However, its low log P indicates some hydrophilicity and thus low permeability. This observation is explained by the presence of specific transporters at the small intestine allowing the molecule to pass. This is even greater at the jejunum. […] This region of the digestive system contains no transporters but since the molecule is hydrophilic and of small size, weak passive transport through the tight junctions is possible. It thus appears that when a higher plasma concentration of baclofen is required, the taking of a higher dose is not effective due to saturation of the transporters. The clinical solution is thus to take small doses at shorter time intervals, which can quickly become burdensome for the patient.

`NCC(CC(=O)O)c1ccc(Cl)cc1` (stereo not drawn) [baclofen, Baclofen]: the “pH of a saturated solution” value in data set [1] was found to be 6.5. In addition, in data set [2], the pKa1 entry is “pKa1 = 3.87”. Moreover, the pKa2 entry in data set [2] is “pKa2 = 9.62”. The Solubility result in data set [3] (0.1N HCl) is reported as “Soluble: 0.1N HCl, 0.1N NaOH”; in data set [3] (0.1N NaOH) it was “Soluble: 0.1N HCl, 0.1N NaOH”; in data set [3] (ethanol) it was “Very slightly soluble: ethanol, methanol”; in data set [3] (methanol) it was “Very slightly soluble: ethanol, methanol”; in data set [3] (water), “Slightly soluble: water (3 mg/ml)”. Moreover, the “Log P” value in data set [4] was −1.
